According to patent US20240383908A1, “SYNTHESIS AND APPLICATION OF PHOSPHATASE DEGRADER” (HINOVA PHARMACEUTICALS INC., priority 2021, published 2024):
Counter-ions that a name gives are not always drawn.

Assays:
[1] = target: T1, SHP2 protein (Homo sapiens, UniProt Q06124); assay: Degradation activity on SHP2 protein in MIA Paca-2 cells (Western blot, DC50); format: cell-based; design: endogenous in cells; host or cells: MIA Paca-2 cells; conditions: read-out: Degradation activity for differenct cell lines MIA Paca-2 (DC50)
T1 sequence (Q06124 1-593): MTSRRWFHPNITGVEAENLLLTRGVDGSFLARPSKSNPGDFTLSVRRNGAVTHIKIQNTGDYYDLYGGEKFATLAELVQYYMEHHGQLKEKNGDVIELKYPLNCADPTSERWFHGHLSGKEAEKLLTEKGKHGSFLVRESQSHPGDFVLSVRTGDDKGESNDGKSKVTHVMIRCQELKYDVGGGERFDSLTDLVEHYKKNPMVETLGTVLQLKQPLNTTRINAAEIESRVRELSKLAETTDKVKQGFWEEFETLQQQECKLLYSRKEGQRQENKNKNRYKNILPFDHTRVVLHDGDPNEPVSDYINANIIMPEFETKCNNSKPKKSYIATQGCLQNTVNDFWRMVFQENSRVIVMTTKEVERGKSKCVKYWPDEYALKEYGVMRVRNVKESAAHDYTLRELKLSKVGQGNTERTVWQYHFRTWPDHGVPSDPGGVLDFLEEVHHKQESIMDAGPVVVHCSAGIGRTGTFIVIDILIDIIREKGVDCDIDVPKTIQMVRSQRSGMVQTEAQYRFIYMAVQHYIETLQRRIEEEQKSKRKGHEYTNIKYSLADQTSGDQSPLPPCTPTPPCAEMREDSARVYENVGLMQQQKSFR
In short: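 DC50 is the concentration degrading 50% of SHP2 relative to DMSO control. It was derived by fitting Western blot band densitometry (anti-SHP2, GAPDH reference) from cells exposed 24 h to 0.1–100 nM compound in 0.1% DMSO.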

[2] = target: T1, SHP2 protein; assay: Degradation activity on SHP2 protein in NCI-H358 cells (Western blot, DC50); format: cell-based; design: endogenous in cells; conditions: read-out: Degradation activity for differenct cell lines NCI-H358 (DC50)
Experimental: (1) MV-411 cells were cultured in the cell culture medium, and then well-growing cells were selected and inoculated in a 12-well plate, with 1 mL/well and 1×10^6 cells/well. The plate was incubated overnight in a 5% CO2 cell incubator at 37° C.
(2) 10 mM storage solution of each drug was prepared using dimethylsulfoxide (DMSO). The stock solution was diluted gradually with DMSO before use, and then 1 μL of the compound solution was added to the cell culture well (to ensure that the DMSO concentration in the culture system was […]), so that the final drug concentration is 100 nM, 10 nM, 3 nM, 1 nM, 0.3 nM, and 0.1 nM. Two wells were set for each concentration. The plate was gently shaken and mixed. Additionally, negative control wells (containing an equal amount of DMSO) and positive control wells were included.
(3) After 24 hours of cultivation, the cells were lysed using RIPA cell lysate, and the proteins were extracted. The protein concentration was measured using a BCA assay kit. 5× concentrated protein buffer was loaded, heated at 100° C. for 5 min, and then the sample was stored at −20° C.
(4) For each well, 30 μg of protein was loaded to polyacrylamide gel for electrophoresis.
(5) The protein was transferred from polyacrylamide gel to PVDF membrane, and sealed at room temperature with 5% skimmed milk for 1 h, which was then incubated with the primary antibodies (Anti-SHP2 rabbit mAb and Anti-GAPDH rabbit mAb) at 4° C. overnight. The membrane was washed three times with TBST solution, 10 minutes for each time. After that, the membrane was incubated with the secondary antibodies (horseradish peroxidase labeled goat anti-rabbit IgG) at room temperature for 2 h, and then washed three times with TBST solution, 10 minutes for each time, followed by exposure.
(6) The images were analyzed with Image J grayscale, and the degradation ratio of protein bands in the test group was calculated, based on the negative control group (DMSO) (100%).
(7) Using the Dose-response-inhibition equation in the data processing software GraphPad Prism 8, the DC50 value was obtained (which represents the drug concentration corresponding to 50% degradation of the target protein).
Using similar methods and different cell lines, the degradation activity of the compound according to the present invention on SHP2 protein of different cell lines was tested under suitable culture conditions.

Row | SMILES | DC50 [1] [nM] | DC50 [2] [nM]
1 | Cc1ncsc1-c1ccc([C@H](C)NC(=O)[C@@H]2C[C@@H](O)CN2C(=O)[C@@H](NC(=O)c2cnc(N3CCN(CCCCCCC(=O)Nc4cccc(Sc5cnc(N6CCC(C)(N)CC6)cn5)c4)CC3)nc2)C(C)(C)C)cc1 [Compound 241] | < 100 | < 100
2 | Cc1ncsc1-c1ccc([C@H](C)NC(=O)[C@@H]2C[C@@H](O)CN2C(=O)[C@@H](NC(=O)c2cnc(N3CCN(CCCC(=O)Nc4cccc(Sc5cnc(N6CCC7(CC6)CO[C@@H](C)[C@H]7N)cn5)c4)CC3)nc2)C(C)(C)C)cc1 [Compound 230] | < 100 | < 100
3 | C[C@H]1CN(c2ccc(C(=O)NCc3ccc4c(c3)CN(C3CCC(=O)NC3=O)C4=O)nn2)CCN1CCCCCCCCC(=O)Nc1cccc(Sc2cnc(N3CCC(C)(N)CC3)cn2)c1 (stereo partly shown) [Compound 249] | < 100 | < 100
4 | CC1(N)CCN(c2cnc(Sc3cccc(NC(=O)CCCCCCCCN4C5CCC4CC(c4ccc(C(=O)NCc6ccc7c(c6)CN(C6CCC(=O)NC6=O)C7=O)nn4)C5)c3)cn2)CC1 (single isomer, unassigned) [Compound 232] | < 100 | < 100
5 | CC(CCCCCCCC(=O)Nc1cccc(Sc2cnc(N3CCC(C)(N)CC3)cn2)c1)N1CC=C(c2ccc(C(=O)NCc3ccc4c(c3)CN(C3CCC(=O)NC3=O)C4=O)nc2)C(C)(C)C1 (stereo not shown) [Compound 245] | < 100 | < 100
6 | C[C@@H]1CN(CCCCCCCCC(=O)Nc2cccc(Sc3cnc(N4CCC(C)(N)CC4)cn3)c2)CCN1c1ccc(C(=O)NCc2ccc3c(c2)CN(C2CCC(=O)NC2=O)C3=O)nn1 (stereo partly shown) [Compound 239] | < 100 | < 100
7 | CC1(N)CCN(c2cnc(Sc3cccc(NC(=O)c4ccc(N5CCC(N6CC=C(c7ccc(C(=O)NCc8ccc9c(c8)CN(C8CCC(=O)NC8=O)C9=O)nc7)CC6)CC5)cc4F)c3)cn2)CC1 (stereo not shown) [Compound 405] | 100 to 1000 | < 100
8 | CC1(N)CCN(c2cnc(Sc3cccc(NC(=O)c4ccc(N5CCC(N6CCN(c7ccc(C(=O)NCc8ccc9c(c8)CN(C8CCC(=O)NC8=O)C9=O)nc7)CC6)CC5)cc4)c3)cn2)CC1 (stereo not shown) [Compound 395] | < 100 | < 100
9 | CCC1(N)CCN(c2cnc(Sc3cccc(NC(=O)CCCCCCCCN4CCN(c5ccc(C(=O)NCc6ccc7c(c6)CN(C6CCC(=O)NC6=O)C7=O)nn5)CC4C(F)(F)F)c3)cn2)CC1 (stereo not shown) [Compound 226] | < 100 | < 100
10 | CC1(N)CCN(c2cnc(Sc3cccc(NC(=O)CCCCN4CCC(N5CCN(c6ccc(C(=O)NCc7ccc8c(c7)CN(C7CCC(=O)NC7=O)C8=O)nn6)CC5)C4)c3)cn2)CC1 (stereo not shown) [Compound 266] | > 1000 | 100 to 1000
11 | Cc1ncsc1-c1ccc([C@H](C)NC(=O)[C@@H]2C[C@@H](O)CN2C(=O)[C@@H](NC(=O)c2cnc(N3CCN(CCCCC(=O)Nc4cccc(Sc5cnc(N6CCC(C)(N)CC6)cn5)c4)CC3)nc2)C(C)(C)C)cc1 [Compound 221] | < 100 | < 100
12 | CC1CC(c2ccc(C(=O)NCc3ccc4c(c3)CN(C3CCC(=O)NC3=O)C4=O)nn2)=CCN1CCCCCCCCC(=O)Nc1cccc(Sc2cnc(N3CCC(C)(N)CC3)cn2)c1 (stereo not shown) [Compound 228] | < 100 | < 100

Further lines, results first:

Row | DC50 [1] [nM] | DC50 [2] [nM] | SMILES
13 | < 100 | > 1000 | CC1(N)CCN(c2cnc(Sc3cccc(NC(=O)c4ccc5c(c4)CC(N4CCN(c6ccc(C(=O)NCc7ccc8c(c7)CN(C7CCC(=O)NC7=O)C8=O)nn6)CC4)C5)c3)cn2)CC1 (stereo not shown) [Compound 344, […]]
14 | < 100 | < 100 | CC1CN(CCCCCCCCC(=O)Nc2cccc(Sc3cnc(N4CCC(C)(N)CC4)cn3)c2)CC=C1c1ccc(C(=O)NCc2ccc3c(c2)CN(C2CCC(=O)NC2=O)C3=O)nc1 (stereo not shown) [Compound 243]
15 | < 100 | < 100 | CC1(N)CCN(c2cnc(Sc3cccc(NC(=O)CCCCCCCCN4CCN(c5ccc(C(=O)NCc6ccc7c(c6)CN(C6CCC(=O)NC6=O)C7=O)nc5Cl)CC4C(F)(F)F)c3)cn2)CC1 (stereo not shown) [Compound 227]
16 | < 100 | < 100 | CC1(N)CCN(c2cnc(Sc3cccc(NC(=O)c4ccc(N5CCC(N6CC=C(c7cnc(C(=O)NCc8ccc9c(c8)CN(C8CCC(=O)NC8=O)C9=O)cc7Cl)CC6)CC5)c(F)c4)c3)cn2)CC1 (stereo not shown) [Compound 418]
17 | < 100 | < 100 | CC1(N)CCN(c2cnc(Sc3cccc(NC(=O)CCCCCCCCN4CCN(c5ccc(C(=O)NCc6ccc7c(c6)CN(C6CCC(=O)NC6=O)C7=O)nn5)C[C@@H]4CO)c3)cn2)CC1 (stereo partly shown) [Compound 251]
18 | < 100 | > 1000 | CC1(N)CCN(c2cnc(Sc3cccc(NC(=O)c4ccc(-c5ccc(N6CCN(c7ccc(C(=O)NCc8ccc9c(c8)CN(C8CCC(=O)NC8=O)C9=O)nc7)CC6)cc5)cc4)c3)cn2)CC1 (stereo not shown) [Compound 343, 5-(4-(4′-((3-(([…])thio)phenyl)carbamoyl)-[1,1′-diphenyl]-4-yl)piperazin-1-yl)-N-((2-(2,6-dioxopiperidin-3-yl)-1-oxoisoindolin-5-yl)methyl)pyridinecarboxamide]
19 | 100 to 1000 | < 100 | CC1(N)CCN(c2cnc(Sc3cccc(NC(=O)c4ccc(N5CCC(N6CC=C(c7ncc(C(=O)NCc8ccc9c(c8)CN(C8CCC(=O)NC8=O)C9=O)cn7)CC6)CC5)cc4)c3)cn2)CC1 (stereo not shown) [Compound 370]
20 | 100 to 1000 | 100 to 1000 | CC1(N)CCN(c2cnc(Sc3cccc(NC(=O)c4ccc(N5CCC(N6CC=C(c7ccc(C(=O)NCc8ccc9c(c8)CN(C8CCC(=O)NC8=O)C9=O)nc7Cl)CC6)CC5)c(F)c4)c3)cn2)CC1 (stereo not shown) [Compound 442]
21 | 100 to 1000 | < 100 | CC1(N)CCN(c2cnc(Sc3cccc(NC(=O)c4ccc(N5CCC(N6CC=C(c7cnc(C(=O)NCc8ccc9c(c8)CN(C8CCC(=O)NC8=O)C9=O)cn7)CC6)CC5)cc4)c3)cn2)CC1 (stereo not shown) [Compound 371]
22 | > 1000 | > 1000 | Cc1ncsc1-c1ccc([C@H](C)NC(=O)[C@@H]2C[C@@H](O)CN2C(=O)[C@@H](NC(=O)c2cnc(N3CCN(CC(=O)Nc4cccc(Sc5cnc(N6CCC(C)(N)CC6)cn5)c4)CC3)nc2)C(C)(C)C)cc1 [Compound 231]
23 | < 100 | < 100 | CC1(N)CCN(c2cnc(Sc3cccc(NC(=O)CCCCCCCCN4C5C=C(c6ccc(C(=O)NCc7ccc8c(c7)CN(C7CCC(=O)NC7=O)C8=O)nn6)CC4CC5)c3)cn2)CC1 (stereo not shown) [Compound 219]
24 | < 100 | < 100 | CC1(N)CCN(c2cnc(Sc3cccc(NC(=O)c4ccc(N5CCC(N6CC=C(c7cnc(C(=O)NCc8ccc9c(c8)CN(C8CCC(=O)NC8=O)C9=O)cc7Cl)CC6)CC5)nc4)c3)cn2)CC1 (stereo not shown) [Compound 419]
25 | < 100 | < 100 | CC1(N)CCN(c2cnc(Sc3cccc(NC(=O)CCCCCCN4CC5(CC=C(c6ccc(C(=O)NCc7ccc8c(c7)CN(C7CCC(=O)NC7=O)C8=O)nc6)CC5)C4)c3)cn2)CC1 (stereo not shown) [Compound 217]
26 | 100 to 1000 | < 100 | CC1(N)CCN(c2cnc(Sc3cccc(NC(=O)c4ccc(N5CCC(N6CC=C(c7ncc(C(=O)NCc8ccc9c(c8)CN(C8CCC(=O)NC8=O)C9=O)cc7Cl)CC6)CC5)cc4)c3)cn2)CC1 (stereo not shown) [Compound 365]
